Test system: ROBO1-iCaspase9CAR-NK cells
Assay: Apoptosis of ROBO1-iCaspase9 CAR-NK cells induced by medicament AP1903
Assay type: cell-based, human
Settings: within 24 hours
Protocol: Different amounts of medicament AP1903 were respectively added into the ROBO1 CAR-NK cells carrying the suicide gene (ATCG427B-1F7 and 2D5) after screening in Example 6 to test the effect thereof on apoptosis of the ROBO1 CAR-NK cells carrying the suicide gene (denoted with ATCG427B). Meanwhile, the medicament AP1903 was added into the ROBO1 CAR-NK cells as control, and divided into three experimental groups, i.e., cells treated by the medicament AP1903 with different concentrations (0 nM, 10 nM and 50 nM) for 2 hours, 4 hours and 24 hours. The experimental groups respectively treated for 4 hours and 24 hours were continuously cultured with fresh medium, and the cell viability was counted three days later, and the results were shown in FIG. 12. In addition, the 0 nM and 10 nM experimental groups treated for 4 hours were cultured in fresh medium for 24 hours and then photographed, and the results were shown in FIG. 13.

CC[C@H](C(=O)N1CCCC[C@H]1C(=O)O[C@H](CCc1ccc(OC)c(OC)c1)c1cccc(OCC(=O)NCCNC(=O)COc2cccc([C@@H](CCc3ccc(OC)c(OC)c3)OC(=O)[C@@H]3CCCCN3C(=O)[C@@H](CC)c3cc(OC)c(OC)c(OC)c3)c2)c1)c1cc(OC)c(OC)c(OC)c1 [AP1903]
effect of AP1903 on the control cells (printed as ROBO1-iCaspase9CAR-NK cells): has no effect | killing of ROBO1-iCaspase9CAR-NK cells by AP1903: can effectively kill

Reference: patent publication US20210401957A1, “ROBO1 CAR-NK CELL CARRYING SUICIDE GENE, PREPARATION METHOD AND APPLICATION THEREOF” (Asclepius (Suzhou) Technology Company Group Co., Ltd., priority 2019, published 2021)
